According to article PMC8396575, ““Molecular Masks” for ACE2 to Effectively and Safely Block SARS-CoV-2 Virus Entry” (International Journal of Molecular Sciences, 2021):
Bridge positions count the residues as written; N and C are the ends. Square brackets hold non-standard residues; d marks the D form. Peptide text beside a SMILES is read from it. I, II: the chains in the order shown. N(4-MeOBn)Gly = COc1ccc(CNCC(=O)O)cc1; N((CH2)3OiPr)Gly = CC(C)OCCCNCC(=O)O; Nrpe = C[C@@H](NCC(=O)O)c1ccccc1; NAllylGly = C=CCNCC(=O)O; Nleu = CC(C)CNCC(=O)O; Nme = COCCNCC(=O)O

Columns and labels:
[1] = test system: total ACE2 protein in Caco-2 cells; assay: Western blot, total ACE2, Caco-2; format: cell-based, human; conditions: various concentrations, 48 h
Method: Cells were lysed in RIPA buffer (1% NP-40, 0.5% sodium deoxycholate, 0.1% SDS in PBS). Complete protease inhibitor cocktail (Roche, St. Louis, MO, USA) was added to lysis buffer before use. Protein concentration was determined by Bio-Rad DC protein assay (Bio-Rad, Hercules, CA, USA). Protein samples were subjected to SDS-PAGE and transferred to nitrocellulose membrane. The membrane was blocked in 5% non-fat milk in PBST overnight and incubated with primary antibody and subsequently with appropriate horse radish peroxidase-conjugated secondary antibody. Signals of targeted proteins were detected by the Immun-Star HRP peroxide Luminol/Enhancer (Bio-Rad, Hercules, CA, USA) and recorded on ChemiDoc Touch Imaging System (Bio-Rad, Hercules, CA, USA). Anti-hACE2 (human ACE2 receptor) antibody was purchased from R&D system, Inc. (Cat# AF933, Minneapolis, MN, USA). Full western blot data are given in Supplementary Material (Figures S14–S16).

[2] = test system: NCI-H1299 cells; assay: WST-1 cell viability assay, NCI-H1299; format: cell-based, human; conditions: WST-1, 48 h, concentrations tested up to 20 µM; n = 3–5/group
Description: (§1) We assessed whether ACE2P1D1 and ACE2P2D1 are toxic to the cells. We seeded and treated increasing concentrations of ACE2P1D1 and ACE2P2D1 on NCI-H1299, Caco-2, and MCF-7 cells. The standard WST-1 assay was used to measure the cell viability. As shown in Figure 5c–e, treatment with both compounds had no effects on cell viability in NCI-H1299, MCF-7, and Caco-2 cells.

[3] = test system: ACE2 activity in Caco-2 cells; assay: ACE2 enzyme activity in Caco-2 cells; format: cell-based, human; conditions: 40 µg cell lysate, cOmplete protease inhibitor 40 µL/mL, 10 µM captopril; fluorescence; n = 3/group
Method: ACE2 is an enzyme which lowers blood pressure by catalyzing the hydrolysis of angiotensin II [49]. […] To determine if ACE2P1D1 and ACE2P2D1 interfere with the normal functions of ACE2, we examined the effects of the peptoids on ACE2 enzyme activity. ACE2 enzyme activity was measured by fluorescence generated from the cleavage of the substrate Mca-YVADAPK(Dnp) by ACE2. […] We then examined the effects of ACE2P1D1 and ACE2P2D1 on ACE2 activity in cultured cells. For measuring ACE2 activity in cells, cell homogenates were used. To prevent hydrolysis of the substrate by a range of nonmetalloprotease enzymes from the cells, cOmplete™ Protease Inhibitor Cocktail (Roche/Sigma—40 µL/mL) was added to the cell homogenates. To eliminate the effects of ACE on the substrate, ACE inhibitor captopril (10 µM) was added to the assay.
ACE2 enzyme activity was determined using recombinant ACE2 protein (R&D system Inc., Cat# 933-ZN-010, Minneapolis, MN, USA) alone or in the presence of ACE2P1D1 and ACE2P2D1 in different concentrations (0.1 µM, 1 µM, and 10 µM), and Mc[…] (Dnp)-OH, Fluorogenic Peptide Substrate VI from R&D System, Inc. (Cat# ES007, Minneapolis, MN, USA). […] ACE2 enzyme activity was measured every 20 min by fluorescence plate reader (BioTek Cytation 5 cell Imaging Multi-Mode Reader, Winooski, VT, USA) with excitation at 320 nm and emission at 405 nm.

[4] = test system: ACE2 cell surface expression in Caco-2 cells; assay: Flow cytometry, ACE2 cell surface expression, Caco-2; format: cell-based, human; conditions: 10 µM, 48 h
Method: To evaluate the impact of compounds to ACE2 upon binding in cell lines, MCF-7, NCI-H1299, and Caco-2 cell cultures reaching 70% confluences were incubated with 10 μM ACE2P1D1 and ACE2P2D1 for 48 h and then harvested using trypsin. Briefly, cells were centrifuged and washed with FACS buffer and then fixed by methanol on ice. Cells were suspended with a primary antibody-staining mixture using 0.5 μg (Human/Mouse/Rat/Hamster ACE-2 Antibody, R&D Systems, Inc., Cat# AF933, Minneapolis, MN, USA) per sample. Samples were incubated at room temperature for 1 h followed by washing and secondary antibody (mouse anti-goat IgG-FITC, Santa Cruz, Cat# sc-2356, Dallas, TX, USA) staining. Samples were incubated for another hour and washed before being analyzed using Accuri™ C6 (BD Biosciences, Franklin Lakes, NJ, USA). Data analysis was conducted by FlowJo™ v10 software (v10.5.2, FlowJo. LLC, Ashland, OR, USA).

[5] = molecular target: T1, recombinant human angiotensin-converting enzyme 2 (ACE2) (His-tag) (Homo sapiens, UniProt Q9BYF1); assay: ELISA-like quantitative ACE2-peptoid binding assay
T1 construct: purchased RayBiotech 230-30165-100
Method: We first validated the OBTC screening results by resynthesizing ACE2P1 and ACE2P2 on tentagel beads and incubated them with red cells (ACE2 positive) and green cells (ACE2 negative) separately as well as 1:1 mixture of these cells. […] Next, we incubated recombinant ACE2 protein with the ACE2P1 or ACE2P2 conjugated tentagel beads and performed in vitro pull-down assay. […] To confirm a direct interaction between the peptoids and ACE2, we performed a thermal shift assay using recombinant ACE2 protein. The Applied Biosystems™ Protein Thermal Shift™ assay measures protein thermal stability using a fluorescent protein-binding dye. […] The protein is mixed with the dye and heated; as it unfolds or melts, hydrophobic parts of the protein are exposed and bind to the dye, resulting in fluorescence emission detected by the qPCR system. Binding of a ligand to the protein changes the stability of the protein, resulting in a change in fluorescence intensity. […] Finally, we performed a previously published ELISA-like quantitative binding assay to quantify the peptoid-ACE2 binding event. The recombinant His-tagged ACE2 protein was attached to the Nickel-coated 96-well plate. […] After washing, the remaining compounds were probed with streptavidin-HRP system followed by detecting luminescence signals using a spectrophotometer. […]

[6] = test system: Caco-2 cells; assay: WST-1 cell viability assay, Caco-2; format: cell-based, human; conditions: WST-1, 48 h, concentrations tested up to 20 µM; n = 3–5/group
Description: as §1

[7] = test system: MCF-7 cells; assay: WST-1 cell viability assay, MCF-7; format: cell-based, human; conditions: WST-1, 48 h, concentrations tested up to 20 µM; n = 3–5/group
Description: as §1

T1 sequence (Q9BYF1 18-805): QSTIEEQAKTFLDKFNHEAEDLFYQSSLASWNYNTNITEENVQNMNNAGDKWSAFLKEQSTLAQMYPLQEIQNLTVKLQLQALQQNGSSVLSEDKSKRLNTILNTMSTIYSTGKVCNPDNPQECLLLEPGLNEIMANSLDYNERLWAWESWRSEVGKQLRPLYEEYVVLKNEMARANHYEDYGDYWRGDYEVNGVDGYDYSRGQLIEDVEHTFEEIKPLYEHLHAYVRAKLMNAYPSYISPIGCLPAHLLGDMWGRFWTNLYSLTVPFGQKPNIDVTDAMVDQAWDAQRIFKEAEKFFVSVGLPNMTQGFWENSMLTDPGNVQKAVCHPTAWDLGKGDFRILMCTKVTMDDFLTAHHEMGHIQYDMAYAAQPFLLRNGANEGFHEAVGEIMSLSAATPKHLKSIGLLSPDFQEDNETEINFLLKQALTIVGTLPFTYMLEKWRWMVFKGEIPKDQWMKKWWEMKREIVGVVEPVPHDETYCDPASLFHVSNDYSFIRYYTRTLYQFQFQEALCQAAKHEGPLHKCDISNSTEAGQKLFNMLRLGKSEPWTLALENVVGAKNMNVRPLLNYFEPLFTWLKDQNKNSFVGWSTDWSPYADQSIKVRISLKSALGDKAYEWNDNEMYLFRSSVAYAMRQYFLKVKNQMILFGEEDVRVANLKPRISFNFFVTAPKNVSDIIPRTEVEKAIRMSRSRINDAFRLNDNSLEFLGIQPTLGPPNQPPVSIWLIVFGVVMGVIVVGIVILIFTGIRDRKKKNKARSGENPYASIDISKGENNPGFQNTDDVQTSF

SMILES | total ACE2 protein level, Caco-2 [1] | effect on cell viability, NCI-H1299 [2] | effect on ACE2 activity in cultured Caco-2 cells [3] | cell surface expression of ACE2, Caco-2 [4] | Kd [5] [nM] | effect on cell viability, Caco-2 [6] | effect on cell viability, MCF-7 [7]
COCCN(CC(=O)N[C@@H](CCCCN)C(=O)N[C@@H](CCSC)C(=O)NCCCC[C@H](NC(=O)[C@H](CCSC)NC(=O)[C@H](CCCCN)NC(=O)CN(CCOC)C(=O)CN(CC(C)C)C(=O)CN(CC(C)C)C(=O)CN(CCCOC(C)C)C(=O)CN(Cc1ccc(OC)cc1)C(=O)CNCc1ccc(OC)cc1)C(N)=O)C(=O)CN(CC(C)C)C(=O)CN(CC(C)C)C(=O)CN(CCCOC(C)C)C(=O)CN(Cc1ccc(OC)cc1)C(=O)CNCc1ccc(OC)cc1 [ACE2P2D1] (I: H-[N(4-MeOBn)Gly][N(4-MeOBn)Gly][N((CH2)3OiPr)Gly][Nleu][Nleu][Nme]KMK-NH2 / II: H-[N(4-MeOBn)Gly][N(4-MeOBn)Gly][N((CH2)3OiPr)Gly][Nleu][Nleu][Nme]KM; amide I:9-II:C) | total ACE2 protein levels did not change | had no effect on the cell viability | had no effects on ACE2 activity | did not decrease the cell surface expression of ACE2 | 110 | had no effect on the cell viability | had no effect on the cell viability
C=CCN(CC(=O)N(CC(=O)N[C@@H](CCCCN)C(=O)N[C@@H](CCSC)C(=O)NCCCC[C@H](NC(=O)[C@H](CCSC)NC(=O)[C@H](CCCCN)NC(=O)CN(C(=O)CN(CC=C)C(=O)CN(Cc1ccc(OC)cc1)C(=O)CN(C(=O)CN(CCOC)C(=O)CNCC(C)C)[C@H](C)c1ccccc1)[C@H](C)c1ccccc1)C(N)=O)[C@H](C)c1ccccc1)C(=O)CN(Cc1ccc(OC)cc1)C(=O)CN(C(=O)CN(CCOC)C(=O)CNCC(C)C)[C@H](C)c1ccccc1 [ACE2P1D1] (I: H-[Nleu][Nme][Nrpe][N(4-MeOBn)Gly][NAllylGly][Nrpe]KMK-NH2 / II: H-[Nleu][Nme][Nrpe][N(4-MeOBn)Gly][NAllylGly][Nrpe]KM; amide I:9-II:C) | total ACE2 protein levels did not change | had no effect on the cell viability | had no effects on ACE2 activity | did not decrease the cell surface expression of ACE2 | 60 | had no effect on the cell viability | had no effect on the cell viability
